Data from patent publication EP0338634B1, “Viper venom polypeptides and genetic expression” (Merck & Co., Inc., priority 1988, dated 1989).
Bridge positions count the residues as written; N and C are the ends. Square brackets hold non-standard residues; d marks the D form. Ends that are not written are not given here. Peptide text beside a SMILES is read from it. Met(O) = CS(=O)CC[C@H](N)C(=O)O

Each compound was assayed against human platelet aggregation (Homo sapiens, UniProt P05106+P08514) (assay: Platelet aggregation assay for synthetic echistatin and analogs (chronolog aggregometer)). Details: human platelet aggregation; Table 5; read-out: IC₅₀(µM)(95% CONFIDENCE LIMITS).
human platelet aggregation, sequence (P08514 32-1039): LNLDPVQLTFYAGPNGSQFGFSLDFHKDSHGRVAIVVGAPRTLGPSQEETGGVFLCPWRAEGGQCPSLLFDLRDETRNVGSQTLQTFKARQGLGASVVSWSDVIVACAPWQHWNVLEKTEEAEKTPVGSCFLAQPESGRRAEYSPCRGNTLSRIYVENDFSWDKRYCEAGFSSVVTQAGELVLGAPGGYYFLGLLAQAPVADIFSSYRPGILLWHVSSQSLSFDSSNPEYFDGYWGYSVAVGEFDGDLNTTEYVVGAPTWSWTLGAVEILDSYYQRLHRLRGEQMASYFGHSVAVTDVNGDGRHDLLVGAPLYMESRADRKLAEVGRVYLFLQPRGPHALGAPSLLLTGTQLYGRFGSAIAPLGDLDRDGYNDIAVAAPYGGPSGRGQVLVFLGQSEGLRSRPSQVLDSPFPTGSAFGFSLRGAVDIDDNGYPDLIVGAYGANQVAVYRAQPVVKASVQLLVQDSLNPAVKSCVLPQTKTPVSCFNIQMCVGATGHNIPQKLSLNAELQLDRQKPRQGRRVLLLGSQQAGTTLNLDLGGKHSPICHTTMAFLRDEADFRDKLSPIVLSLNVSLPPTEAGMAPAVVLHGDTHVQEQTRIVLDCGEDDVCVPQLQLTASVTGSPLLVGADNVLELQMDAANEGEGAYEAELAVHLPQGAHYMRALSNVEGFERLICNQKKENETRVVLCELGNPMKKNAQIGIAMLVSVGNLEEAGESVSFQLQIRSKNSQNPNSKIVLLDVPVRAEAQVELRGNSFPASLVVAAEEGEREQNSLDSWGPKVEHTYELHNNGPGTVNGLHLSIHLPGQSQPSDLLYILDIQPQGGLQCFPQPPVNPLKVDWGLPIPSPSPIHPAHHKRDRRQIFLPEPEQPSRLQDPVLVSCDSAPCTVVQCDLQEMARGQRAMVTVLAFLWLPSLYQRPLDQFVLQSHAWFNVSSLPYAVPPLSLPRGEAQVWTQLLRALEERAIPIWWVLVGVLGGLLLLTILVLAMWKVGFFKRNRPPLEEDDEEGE
human platelet aggregation, sequence (P05106 27-788): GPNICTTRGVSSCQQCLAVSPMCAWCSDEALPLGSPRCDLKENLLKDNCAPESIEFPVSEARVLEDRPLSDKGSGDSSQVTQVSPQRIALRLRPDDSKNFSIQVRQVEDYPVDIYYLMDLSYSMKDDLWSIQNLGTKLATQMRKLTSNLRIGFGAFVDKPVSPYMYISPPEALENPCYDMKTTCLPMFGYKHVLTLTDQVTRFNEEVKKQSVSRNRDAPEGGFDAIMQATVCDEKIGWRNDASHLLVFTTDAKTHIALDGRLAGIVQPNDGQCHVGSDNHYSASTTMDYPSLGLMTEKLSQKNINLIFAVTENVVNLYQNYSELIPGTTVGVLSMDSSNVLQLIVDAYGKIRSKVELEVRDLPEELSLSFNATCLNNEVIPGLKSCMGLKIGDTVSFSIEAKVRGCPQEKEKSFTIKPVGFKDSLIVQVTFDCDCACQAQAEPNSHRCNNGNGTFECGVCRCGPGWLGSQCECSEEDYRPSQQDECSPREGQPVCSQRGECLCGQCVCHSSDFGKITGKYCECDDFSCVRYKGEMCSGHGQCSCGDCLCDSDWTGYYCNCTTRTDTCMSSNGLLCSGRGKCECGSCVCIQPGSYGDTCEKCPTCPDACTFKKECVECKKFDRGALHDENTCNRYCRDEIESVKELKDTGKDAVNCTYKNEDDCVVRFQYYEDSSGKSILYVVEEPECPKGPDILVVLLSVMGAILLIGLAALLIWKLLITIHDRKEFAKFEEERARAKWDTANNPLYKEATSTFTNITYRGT
Assay type: cell-based
Description: Platelet aggregation was measured at 37°C in a chronolog aggregometer. The reaction mixture contained washed platelets (2 x 10⁸/ml), fibrinogen ([…]), Ca²⁺ (1 mM), and the platelet aggregation inhibitor fraction to be tested The aggregation was initiated by adding […] ADP 1 min after the other components had been added. The reaction was allowed to proceed for at least 2 min. The extent of inhibition of aggregation was expressed as the percentage of the rate of aggregation observed in the absence of inhibitor. […]
The concentration of peptide necessary to inhibit the rate of human platelet aggregation by 50% (IC₅₀) was determined using platelets from 2-4 donors. Determinations were performed in duplicate for each donor.
In the case of `CC[C@H](C)[C@@H]1NC(=O)[C@H]([C@@H](C)O)NC(=O)CNC(=O)[C@H](CCC(=O)O)NC(=O)[C@H](CCCCN)NC(=O)[C@H](CC(C)C)NC(=O)[C@H](Cc2ccccc2)NC(=O)[C@H](CCCCN)NC(=O)[C@@H]2CSSC[C@H](NC(=O)[C@@H](N)CCC(=O)O)C(=O)N[C@@H](CCC(=O)O)C(=O)N[C@@H](CO)C(=O)NCC(=O)N3CCC[C@H]3C(=O)N[C@H]3CSSC[C@@H]4NC(=O)[C@H](Cc5ccc(O)cc5)NC(=O)[C@H](CC(=O)O)NC(=O)[C@H](CC(=O)O)NC(=O)[C@H](CC(C)C)NC(=O)[C@H](CC(=O)O)NC(=O)[C@H](CC(=O)O)NC(=O)CNC(=O)[C@H](CCCNC(=N)N)NC(=O)[C@H](C)NC(=O)[C@H](CCCNC(=N)N)NC(=O)[C@H](CCCCN)NC(=O)[C@H](CSSC[C@@H](C(=O)N5CCC[C@H]5C(=O)N[C@@H](CCCNC(=N)N)C(=O)N[C@@H](CC(N)=O)C(=O)N5CCC[C@H]5C(=O)N[C@@H](Cc5c[nH]cn5)C(=O)N[C@@H](CCCCN)C(=O)NCC(=O)N5CCC[C@H]5C(=O)N[C@@H](C)C(=O)N[C@H](C(=O)O)[C@@H](C)O)NC(=O)[C@H](CC(=O)O)NC(=O)[C@H](CSSC[C@H](NC3=O)C(=O)N[C@@H](CCCNC(=N)N)C(=O)N[C@@H](CC(N)=O)C(=O)N2)NC(=O)[C@H]([C@@H](C)O)NC(=O)[C@H](CCCCN)NC(=O)CNC(=O)[C@H](CC(N)=O)NC4=O)NC1=O` [Example 13, leu 28-echistatin], the IC50 is reported as 0.034 µM.
`CC[C@H](C)[C@@H]1NC(=O)[C@H]([C@@H](C)O)NC(=O)CNC(=O)[C@H](CCC(=O)O)NC(=O)[C@H](CCCCN)NC(=O)[C@H](CC(C)C)NC(=O)[C@H](Cc2ccccc2)NC(=O)[C@H](CCCCN)NC(=O)[C@@H]2CSSC[C@H](NC(=O)[C@@H](N)CCC(=O)O)C(=O)N[C@@H](CCC(=O)O)C(=O)N[C@@H](CO)C(=O)NCC(=O)N3CCC[C@H]3C(=O)N[C@H]3CSSC[C@@H]4NC(=O)[C@H](Cc5ccc(O)cc5)NC(=O)[C@H](CC(=O)O)NC(=O)[C@H](CC(=O)O)NC(=O)[C@H](CCSC)NC(=O)[C@H](CC(=O)O)NC(=O)[C@H](CC(=O)O)NC(=O)CNC(=O)[C@H](CCCNC(=N)N)NC(=O)[C@H](C)NC(=O)[C@H](CCCNC(=N)N)NC(=O)[C@H](CCCCN)NC(=O)[C@H](CSSC[C@@H](C(N)=O)NC(=O)[C@H](CC(=O)O)NC(=O)[C@H](CSSC[C@H](NC3=O)C(=O)N[C@@H](CCCNC(=N)N)C(=O)N[C@@H](CC(N)=O)C(=O)N2)NC(=O)[C@H]([C@@H](C)O)NC(=O)[C@H](CCCCN)NC(=O)CNC(=O)[C@H](CC(N)=O)NC4=O)NC1=O` [Example 19, (1-39)-echistatin amide] (H-ECESGPCCRNCKFLKEGTICKRARGDDMDDYCNGKTCDC-NH2; disulfide 2-11, 7-32, 8-37, 20-39) was tested, and the IC50 was 0.327 µM.
Compound `CC[C@H](C)[C@@H]1NC(=O)[C@H]([C@@H](C)O)NC(=O)CNC(=O)[C@H](CCC(=O)O)NC(=O)[C@H](CCCCN)NC(=O)[C@H](CC(C)C)NC(=O)[C@H](Cc2ccccc2)NC(=O)[C@H](CCCCN)NC(=O)[C@@H]2CSSC[C@H](NC(=O)[C@@H](N)CCC(=O)O)C(=O)N[C@@H](CCC(=O)O)C(=O)N[C@@H](CO)C(=O)NCC(=O)N3CCC[C@H]3C(=O)N[C@H]3CSSC[C@@H]4NC(=O)[C@H](Cc5ccc(O)cc5)NC(=O)[C@H](CC(=O)O)NC(=O)[C@H](CC(=O)O)NC(=O)[C@H](CCSC)NC(=O)[C@H](CC(=O)O)NC(=O)[C@H](CC(=O)O)NC(=O)CNC(=O)[C@H](CCCNC(=N)N)NC(=O)[C@H](C)NC(=O)[C@H](CCCNC(=N)N)NC(=O)[C@H](CCCCN)NC(=O)[C@H](CSSC[C@@H](C(=O)O)NC(=O)[C@H](CC(=O)O)NC(=O)[C@H](CSSC[C@H](NC3=O)C(=O)N[C@@H](CCCNC(=N)N)C(=O)N[C@@H](CC(N)=O)C(=O)N2)NC(=O)[C@H]([C@@H](C)O)NC(=O)[C@H](CCCCN)NC(=O)CNC(=O)[C@H](CC(N)=O)NC4=O)NC1=O` [Example 20, (1-39)-echistatin] (H-ECESGPCCRNCKFLKEGTICKRARGDDMDDYCNGKTCDC-OH; disulfide 2-11, 7-32, 8-37, 20-39) has an IC50 of 0.8 µM.
Work on “ECESGPCCRNCKFLKEGTICKRARGDD[Met(O)]DDYCNGKTCDCPRNPHKGPAT (disulfide 2-11, 7-32, 8-37, 20-39) [Example 18, met SO 28-echistatin]” yielded an IC50 of 0.088 µM.
With “H-ECESGPCCRNCKFLKEGTICKNARGDFLDDYCNGKTCDCPRNPHKGPAT-OH (disulfide 2-11, 7-32, 8-37, 20-39) [Example 15, asn 22, phe 27, leu 28-echistatin]” the IC50 was 0.038 µM.
“H-ECESGPCCRNCKFLKEGTICKRARGDDFDDYCNGKTCDCPRNPHKGPAT-OH (disulfide 2-11, 7-32, 8-37, 20-39) [Example 14, phe 28-echistatin]” showed an IC50 of 0.038 µM.
Work on “H-ECESGPCCRNCKFLKEGTICKRARGDDMDDYCNGKTCDCPR-NH2 (disulfide 2-11, 7-32, 8-37, 20-39) [Example 16, (1-41)-echistatin amide]” yielded an IC50 of 0.066 µM.
“H-ECESGPCCRNCKFLKEGTICKRARGDDMDDYCNGKTCDCPRNP-NH2 (disulfide 2-11, 7-32, 8-37, 20-39) [Example 17, (1-43)-echistatin amide]” was tested, and the IC50 was 0.081 µM.
Work on “H-ECESGPCCRNCKFLKEGTICKRARGDFLDDYCNGKTCDCPRNPHKGPAT-OH (disulfide 2-11, 7-32, 8-37, 20-39) [Example 10, phe 27, leu 28-echistatin]” yielded an IC50 of 0.016 µM.
In the case of “H-ECESGPCCRNCKFLKEGTICKRARGDFMDDYCNGKTCDCPRNPHKGPAT-OH (disulfide 2-11, 7-32, 8-37, 20-39) [Example 9, phe 27-echistatin]”, the IC50 is reported as 0.013 µM.
In the case of “H-ECESGPCCRNCKFLKEGTICKRARGDWMDDYCNGKTCDCPRNPHKGPAT-OH (disulfide 2-11, 7-32, 8-37, 20-39) [Example 11, trp 27-echistatin]”, the IC50 is reported as 0.017 µM.
With “H-ECESGPCCRNCKFLKEGTICKRPRGDFLDDYCNGKTCDCPRNPHKGPAT-OH (disulfide 2-11, 7-32, 8-37, 20-39) [Example 12, pro 23, phe 27, leu 28-echistatin]” the IC50 was 0.026 µM.

Same assay, conditions: rate of human platelet aggregation; platelets from 2-4 donors, duplicate; Table 4; read-out: IC₅₀(µM)(95% CONFIDENCE LIMITS)
Work on “H-ECESGPCCRNCKFLKEGTICKRARGDDMDDYCNGKTCDCPRNPHKGPAT-OH (disulfide 2-11, 7-32, 8-37, 20-39) [Synthetic Echistatin, echistatin]” yielded an IC50 of 0.033 µM.
